Experimental data: a melting point compilation (Tetko et al.)

Row | SMILES | melting point [°C]
1 | CN1CCNC(=O)CCSCCSCCC1=O | 115 to 116
2 | Cc1cc(C)c(N)c(C)c1N | 90
3 | O=S(=O)(Cl)c1cc(F)c(Br)cc1F | 35
4 | O=C1Nc2ccc(Cl)cc2C(c2ccccc2Cl)=NC1O (centres undefined) | 166
5 | OC1c2ccccc2CCc2ccccc21 | 92
6 | Cc1c(S(=O)(=O)c2ccc(Cl)cc2)csc1C(=O)NN | 165 to 168
7 | Clc1ccc(-c2csc3nc4ccccc4n23)cc1 | 200 to 203
8 | c1ccc(-c2ccc(-c3nc4ccc(-c5ccccc5)cc4o3)cc2)cc1 | 199 to 201
9 | CSc1nc(N)nc(C2CC2)n1 | 157 to 159
10 | c1cncc(-c2ccnc(-c3cccnc3)c2)c1 | 148
11 | O=Cc1c[nH]nc1-c1ccc(F)cc1 | 160 to 164
12 | N#Cc1cn(C2CC2)c(=O)[nH]c1=O | 254 to 258
13 | COc1ccc(-c2nnc3n2NCS3)cc1 | 200
14 | COc1ccccc1N=Nc1ccccc1 | 41
15 | O=C(Cl)c1ccc2occc2c1 | 67 to 68
16 | O=C(O)C=Cc1cccnc1 | 233 to 237
17 | O=C1NC(=O)c2c(Cl)c(Cl)c(Cl)c(Cl)c21 | 300
18 | O=C1CCc2cccc3c2N1CC3 | 112
19 | O=C1CCSc2ccccc21 | 29
20 | Oc1cccc(O)c1Cc1c(O)cccc1O | 255
21 | CSC(S)=Nc1ccc(Br)cc1 | 133 to 134

Row | SMILES | melting point [°C]
22 | ICCCI | -20
23 | COc1ccc(OC2OC(CO)C(O)C(O)C2O)cc1 (centres undefined) | 159
24 | Oc1ccc(O)c(Cl)c1 | 108
25 | NNC(=O)c1ccc(Cl)c(Cl)c1 | 154 to 160
26 | Clc1ccc(CSC(Cn2cncn2)=Nc2ccc(Cl)cc2Cl)cc1 | 90
27 | CCC(C)(C)OC(N)=O | 86
28 | O=C=Nc1ccc(Cl)cc1Cl | 59 to 60
29 | ClCc1ccc(-c2ncccn2)cc1 | 83 to 84.5
30 | O=C(O)c1coc2ccccc2c1=O | 201
31 | Cc1cccc2c1C/C2=N/Nc1ccc([N+](=O)[O-])cc1[N+](=O)[O-] | 227
32 | c1ccc(Sc2ccc3ccccc3n2)cc1 | 48
33 | ClC1=C(Cl)C2(Cl)C3C(Cl)OC(Cl)C3C1(Cl)C2(Cl)Cl (centres undefined) | 121
34 | COc1ccc(CC2c3cc(OC)c(OC)cc3CCN2C)cc1OC (centres undefined) | 89
35 | O=C(O)C1CNC1 | 250 to 292
36 | Cc1c(NC(=O)C(F)(F)C(F)(F)C(F)(F)C(F)(F)C(F)(F)C(F)(F)C(F)(F)C(F)(F)F)c(=O)n(-c2ccccc2)n1C | 177
37 | O=C(O)c1ncc[nH]1 | 198
38 | Nc1cccc(CN2CCOCC2)c1 | 73 to 75
39 | CS(=O)(=O)Oc1ccccc1 | 62 to 63
40 | O=C(Nc1ccccc1)OC1C=CC=CC(OC(=O)Nc2ccccc2)C1 (centres undefined) | 181
41 | Cc1ccc(Cl)c(Cl)c1Cl | 43.5
42 | O=[N+]([O-])c1ccc(C(Cl)C(Cl)c2ccc(C(Cl)C(Cl)c3ccc([N+](=O)[O-])cc3[N+](=O)[O-])cc2)c([N+](=O)[O-])c1 (centres undefined) | 92 to 99

Row | SMILES | melting point [°C]
43 | CC(=O)c1nn(-c2cccc([N+](=O)[O-])c2)c(=NC(=O)c2ccccc2)s1 | 196
44 | O=[N+]([O-])c1ccc(N/N=C/c2ccccc2)c([N+](=O)[O-])c1 | 240
45 | N#CC1=C(N)Oc2[nH]nc(C(F)(F)F)c2C1c1ccccc1Cl (centres undefined) | 181
46 | CC(=O)C1CCC2C3CCC4CC(=O)CCC4(C)C3CCC12C (centres undefined) | 200
47 | CC(Cl)C(C)Cl (centres undefined) | -80
48 | C=CCc1c(O)cccc1C=O | 104 to 106
49 | CCOC(=O)NP(=O)(N1CC1)N1CC1 | 89
50 | CSc1ccccc1C(=O)O | 170 to 173
51 | Nc1snnc1-c1ccccc1 | 144 to 147
52 | O=C(Nc1ccc2ncccc2c1)Nc1ccc2ncccc2c1 | 262
53 | Cc1ccc(Cc2c(N)n[nH]c2N)cc1 | 173 to 175
54 | NC(=S)Nc1cccc(Br)c1 | 150 to 151
55 | Nc1nnc(C2CC2)[nH]1 | 128 to 130
56 | CC(=O)c1nn2c(nc(=O)c3ccccc32)s1 | 199
57 | c1ccc(N2CSc3nnc(-c4cccnc4)n3C2)cc1 | 214
58 | CC(=O)OC1CCC2(C)C(=CCC3C4CC(C)C(=O)C4(C)CCC32)C1 (centres undefined) | 141
59 | CC(=O)c1ccc(F)cc1O | 31.5
60 | COc1ccccc1C1Nn2c(nnc2-c2cccnc2)S1 (centres undefined) | 221
61 | NC1CCC1 | -4
62 | COc1ccc(C2C(C#N)=C(N)Oc3c2c(C(F)(F)F)nn3-c2ccccc2)cc1 (centres undefined) | 211
63 | CC(=O)Oc1cc(OC(C)=O)cc(C(=O)O)c1 | 159

Other lines, results leading:

Row | melting point [°C] | SMILES
64 | 105 | Cc1ccc(NC(=O)C(C)c2ccc(C)cc2)cc1 (centres undefined)
65 | 105 to 107 | COc1ccc(C2c3cc(OC)c(OC)cc3CCN2C(C)=O)cc1 (centres undefined)
66 | -18.7 | CCOCCOCCOCCO
67 | -104 | CCNC(C)CC (centres undefined)
68 | 112 | CCOC(=O)c1c(N)sc2c1CCN(Cc1ccccc1)C2
69 | 140 | CC(C)=CCCC(C)C1CCC2(C)C3=C(CCC12C)C1(C)CCC(O)C(C)(C)C1CC3 (centres undefined)
70 | 53 to 59 | BrCc1ccccc1COc1ccccc1
71 | 72.5 | CC(C)C1CCCCC1=O (centres undefined)
72 | 97 | CCC(C=O)(CC)CCC#N
73 | 109 | CC12CCC(C(Br)(CBr)C1=O)C2(C)C (centres undefined)
74 | 122 | O=[N+]([O-])c1ccc(NN=C(Cc2ccccc2)C(O)Cc2ccccc2)cc1 (centres undefined)
75 | 60 to 62 | COC(=O)C1C2(C)C=CC(O2)C1(OC)OC (centres undefined)
76 | 165 to 167 | Cc1cc(C)n2cnnc2n1
77 | 55.5 | Cc1cc(C)c2ccccc2c1C
78 | 125 to 128 | CC(=O)Nc1ccc(Br)c(Cl)c1
79 | -70 | CC(CC(=O)O)CC(C)(C)C (centres undefined)
80 | -1.1 | CC(C)OC(=O)CCCCC(=O)OC(C)C
81 | 163 | BrCC(CBr)(CBr)CBr
82 | 96.5 | C[Si](C)(C)C1c2ccccc2-c2ccccc21
83 | -20 | CC(C)(C)CCl
84 | 94 to 100 | Cc1ccc(S(=O)(=O)N(CCO)CCO)cc1
85 | 132 to 136 | CSCC[C@H](NC(=O)OCC1c2ccccc2-c2ccccc21)C(=O)O

Row | melting point [°C] | SMILES
86 | 116 | CN(C)CCN1C(=O)c2ccccc2N(C)c2ccccc21
87 | 145 | CCCOc1ccc(C(=O)O)cc1
88 | 201 | Cc1cc(C)c(O)c(C(=O)CC2CC(=O)NC(=O)C2)c1
89 | 96 | CCN(Cc1ccncc1)C(=O)C(CO)c1ccccc1 (centres undefined)
90 | -4 | CCCCCCCCCCOC(=O)c1ccccc1C(=O)OCCCCCC
91 | 65.5 to 66.5 | CNCc1ccc(-c2cccs2)nc1
92 | 107 to 108 | O=C(NC(Cc1ccccc1)C(=O)CCl)OCc1ccccc1 (centres undefined)
93 | 110 | COc1ccc(CC(=O)O)c(OC)c1
94 | 134 | CCCCN(CCCC)C(C(N)=O)c1ccc(OC)cc1 (centres undefined)
95 | 3 | CCCCCCCCCCCCc1ccccc1
96 | 113 to 114 | COc1ccc(OCC(N)=S)cc1
97 | 95 to 99 | N#CCn1cnc(Cl)c1Cl
98 | -5 to -3 | CCCCCCCCCCN(CCCCCCCCCC)CCCCCCCCCC
99 | 207 | CCC1=C(C)CN(C(=O)NCCc2ccc(S(=O)(=O)NC(=O)NC3CCC(C)CC3)cc2)C1=O (centres undefined)
100 | 1 | CC(C)C12CCC(C)(CC1)O2
101 | 209 to 211 | CCOC(=O)c1c(NC(=S)Nc2ccc(F)cc2)sc2c1CCCC2
102 | 174 | COc1ccc(-c2ccc(S(=O)(=O)NC(CCSC)C(=O)O)cc2)cc1 (centres undefined)
103 | 109 | CCCCCC(O)c1ccc(O)c(O)c1 (centres undefined)
104 | -93 | CC(C)CI
105 | 34.5 | CCCCCCCCCCCCCCCCCCOC(C)=O
106 | 217 | CCOc1nc(F)cc2nc(S(=O)(=O)Nc3c(Cl)cccc3C(=O)OC)nn12
107 | 255 | N#CCCn1cnc2c(N)ncnc21

Row | melting point [°C] | SMILES
108 | 60 to 62 | COC1=C(OC)/C(=C/C=O)OC1=O
109 | -36 | CCCCCCCCc1ccccc1
110 | 200 | CCOC(=O)c1nn(-c2ccc(C)cc2)c(C)c1C(=O)C1=NOC2C(=O)N(c3ccccc3C)C(=O)C12 (centres undefined)
111 | 150 | Cc1cc(C(=O)O)c(C)n1C
112 | 167 | CCOC(=O)c1cc2cc3cc(C(=O)OCC)c(C)nc3cc2nc1C
113 | 94 to 95 | CCCC(=O)c1ccc(N)cc1
114 | 103 to 105 | CC1(C)CCC(=O)CC1=O
115 | 222 | CC/C(=N\NC(N)=O)C1CC2(C)CCC1C2(C)C (centres undefined)
116 | 193 | CC1=Nc2ccccc2N=C(C)C1
117 | 130 to 132 | Cc1csc(C(=O)NN)c1Cl
118 | 146 to 147 | COC1(OC)CC[C@]2(C)[C@H]3CC[C@]4(C)CCC[C@@]4(O)[C@@H]3CC[C@@]2(C)C1
119 | 195 | C=C(C)C1Cc2c(cc(O)c3c2OC2COc4cc(OC)c(OC)cc4C2C3=O)O1 (centres undefined)
120 | 163 | COc1ccc(Br)c(C)c1C(=O)O
121 | 126 to 128 | COC(=O)c1ccc(OC)c(S(=O)(=O)Cl)c1
122 | -53 | C[Si](C)(Cl)O[Si](C)(C)O[Si](C)(C)Cl
123 | 267 | CCO/C=N/c1c(C(=O)OCC)sc2sc(C(=O)OCC)c(/N=C/OCC)c12
124 | 225 to 227 | CC(=O)Nc1ccccc1CCNC(=O)c1ccc2ccccc2c1O
125 | 68 | CC(C)(CO)C(O)C(=O)NCCCO (racemic)
126 | 166 | COC(=O)CCc1c([N+](=O)[O-])cc2c(c1[N+](=O)[O-])NC(=O)CC2
127 | 74 | CCOC(=O)c1cccc(O)c1
128 | 14.8 | CCCCCCCCC(=O)OC(=O)CCCCCCCC
129 | 243 to 245 | CC1NC(C(=O)O)Cc2c1[nH]c1ccccc21 (centres undefined)
